Test results as given in US9082985B2, “Arylsulfonic acid compound and use thereof as electron-acceptor material” (NISSAN CHEMICAL INDUSTRIES, LTD., priority 2008, dated 2015).

Assay: Solubility test: amount of cyclohexanol (CHA) added until the varnish became clouded
Type: physicochemical
Settings: varnish of arylsulfonic acid compound with PTA (0.5 molar equivalents; 1.0 for NSO-2) in 1 g DMI, solid content 7.0 wt %; amount of CHA when the varnish became clouded
Method: The arylsulfonic acid compounds obtained in the above Examples 1 to 4 and Comparative Example 1 were subjected to a solubility test in solvent according to the following procedure.
The respective arylsulfonic acid compounds obtained in Examples 1 to 4 and 0.5 molar equivalents of PTA, relative to the compound, were dissolved in 1 g of 1,3-dimethyl-2-imidazolidinone (hereinafter abbreviated as DMI) so that the solid content was set at 7.0 wt %, thereby preparing varnishes.
Cyclohexanol (hereinafter abbreviated as CHA) was added to the resulting varnish to determine, as an index for solubility, an amount of CHA at the time when the varnish became clouded.
NSO-2 obtained in Comparative Example 1 and 1.0 molar equivalent of PTA, relative to NSO-2, were dissolved in 1 g of DMI so that the solid content was set at 7.0 wt %, thereby preparing a varnish.
CHA was added to the resulting varnish to determine, as an index for solubility, an amount of CHA at the time when the varnish became clouded.

Amount of dissolution in CHA [g]	Structure (SMILES)
8.0	N#Cc1c(F)c(F)c(Oc2cc(S(=O)(=O)O)cc3cc(S(=O)(=O)O)ccc23)c(F)c1C#N [Example 3FNS-1, Dicyanoperfluorotoluenesulfonic acid compound]
>10	N#Cc1c(F)c(F)c(Oc2cc(S(=O)(=O)O)cc3cc(S(=O)(=O)O)ccc23)c(F)c1F [Example 4FNS-2, Cyanoperfluorotoluenesulfonic acid compound]
>10	O=S(=O)(O)c1ccc2c(Oc3c(F)c(F)c(C(F)(F)C(F)=C(F)F)c(F)c3F)cc(S(=O)(=O)O)cc2c1 [Example 9FNS-1, Perfluoroallylbenzene naphthalenesulfonic acid compound]

Structure (SMILES)	Amount of dissolution in CHA [g]
O=S(=O)(O)c1ccc2c(Oc3c(F)c(F)c(C(F)(F)F)c(F)c3F)cc(S(=O)(=O)O)cc2c1 [Example 7FNS-1, Perfluorotoluene naphthalenesulfonic acid compound]	>10
O=S(=O)(O)c1ccc2c(Oc3c(F)c(F)c(-c4c(F)c(F)c(Oc5cc(S(=O)(=O)O)cc6cc(S(=O)(=O)O)ccc56)c(F)c4F)c(F)c3F)cc(S(=O)(=O)O)cc2c1 [NSO-2, Naphthalenedisulfonic acid compound, reference compound]	3.3
